Test results reported in BindingDB's records for doi:10.1021/jm00403a015 (Washington State University, 1988).

Target: Cytidine deaminase (Mus musculus) (UniProt P56389)
Experiment: Inhibition of cytidine deaminase enzyme obtained from mouse kidney

Chain of Cytidine deaminase (Mus musculus) (P56389 whole entry, looked up): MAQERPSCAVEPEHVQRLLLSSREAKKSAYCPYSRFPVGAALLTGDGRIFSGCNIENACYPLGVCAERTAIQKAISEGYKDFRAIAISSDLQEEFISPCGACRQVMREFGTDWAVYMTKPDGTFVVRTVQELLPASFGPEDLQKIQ

Ki: 330 µM
Compound: [O-][S+]1C=CN(C2O[C@H](CO)[C@@H](O)[C@H]2O)C(O)=C1 (stereo partly specified)
